Results on 9 molecules are retold here after patent US8883963B2 (Cadila Healthcare Limited, priority 2007, dated 2014).

For data set [1], the system named is C57BL/6J mice (mild hyperglycemic). Put plainly: In vivo glucose reduction, acute single dose 120-min time-course, i.p. route. Also noted: species or system mouse; unit not given here. The settings on record: male C57BL/6J mice. On the procedure:
All the animal experiments were carried out according to the internationally valid guidelines following approval by the ‘Zydus Research Center animal ethical committee’.
Two days prior to the study, the animals were randomised and divided into 5 groups (n=6), based upon their fed glucose levels. On the day of experiment, food was withdrawn from all the cages, water was given ad-libitum and were kept for overnight fasting. Vehicle (normal saline)/test/standard compounds were administered intraperitoneally (i.p.) or orally, on a body weight basis.
Blood samples were centrifuged and the separated serum was immediately subjected for the glucose estimation. Serum for insulin estimation was stored at −70° C. until used for the insulin estimation. The glucose estimation was carried out with DPEC-GOD/POD method (Ranbaxy Fine Chemicals Limited, Diagnostic division, India), using Spectramax-190, in 96-microwell plate reader (Molecular devices Corporation, Sunnyvale, Calif.). […] The AUC and BCAUC obtained from graphs were analyzed for one way ANOVA, followed by Dunnett's post test, using Graph Pad prism software. Furthermore, the insulin estimation was carried out using rat/mouse insulin ELISA kit (Linco research, Missouri USA).

Data set [2] has as its system RIN5F (Rat Insulinoma) cells. Put plainly: In vitro glucose-dependent insulin secretion (RIN5F cell assay screening protocol). It is filed as cell-based. Conditions: 16.7 mM glucose load.
The target of data set [3] is T1, Human GLP-1 receptor (Homo sapiens, UniProt P43220).
T1 construct: The full-length cDNA was cloned in pcDNA3.1(+); expressed in transfected cells
T1 sequence (P43220 24-463): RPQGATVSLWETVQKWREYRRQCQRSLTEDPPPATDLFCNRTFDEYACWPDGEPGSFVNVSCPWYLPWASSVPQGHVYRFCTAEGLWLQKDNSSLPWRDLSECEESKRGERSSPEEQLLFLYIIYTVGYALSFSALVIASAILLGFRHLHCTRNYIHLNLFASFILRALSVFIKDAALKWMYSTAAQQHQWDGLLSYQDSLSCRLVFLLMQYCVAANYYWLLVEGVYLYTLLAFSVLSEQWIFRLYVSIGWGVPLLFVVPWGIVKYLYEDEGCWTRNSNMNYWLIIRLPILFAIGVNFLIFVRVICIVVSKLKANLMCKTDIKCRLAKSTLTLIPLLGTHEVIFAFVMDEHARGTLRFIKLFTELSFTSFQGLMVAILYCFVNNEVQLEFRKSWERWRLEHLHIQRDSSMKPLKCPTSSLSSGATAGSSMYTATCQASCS
Put plainly: In vitro Human GLP-1 R agonist activity (cyclic AMP determination) in CHO/human GLP1R cells. The format is cell-based.

For data set [4], the target named is T2, human glucagon receptor (Homo sapiens, UniProt P47871).
T2 construct: The full-length cDNA was cloned in pcDNA3.1 (Invitrogen); expressed in transfected cells
T2 sequence (P47871 26-477): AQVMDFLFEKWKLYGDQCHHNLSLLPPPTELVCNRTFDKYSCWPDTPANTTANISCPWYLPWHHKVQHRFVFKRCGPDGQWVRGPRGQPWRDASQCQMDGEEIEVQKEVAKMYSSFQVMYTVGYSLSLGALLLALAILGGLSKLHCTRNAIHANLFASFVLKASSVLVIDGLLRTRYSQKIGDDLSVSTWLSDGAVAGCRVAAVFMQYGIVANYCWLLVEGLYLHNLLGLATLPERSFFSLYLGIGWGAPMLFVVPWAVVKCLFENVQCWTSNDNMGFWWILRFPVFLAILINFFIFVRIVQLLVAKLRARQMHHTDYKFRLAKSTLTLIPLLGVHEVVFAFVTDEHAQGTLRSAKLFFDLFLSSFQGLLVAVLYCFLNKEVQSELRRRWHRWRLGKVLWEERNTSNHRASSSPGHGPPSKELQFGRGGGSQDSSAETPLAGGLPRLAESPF
Put plainly: In vitro human glucagon antagonist activity (inhibition of cAMP production) in CHO/human glucagon R cells. The format is cell-based. The settings on record: with saturated concentration of glucagon peptide. On the technique in general: Cyclic AMP is a second messenger, typically raised through Gs and lowered through Gi signalling.

For data set [5], the target named is DPP IV (Homo sapiens, UniProt P27487). Kind of data set: Stability against DPP IV enzyme. The format is in vitro ADME. The settings on record: 37° C. Here is the method:
(§1) Reactions were terminated by the addition of TFA/H2O (15 mL, 10% (v/v)). […] The column was equilibrated with TFA/H20, at a flow rate of 1 mL/min.

The nature of data set [6]: Stability in human plasma. The format is in vitro ADME. Conditions: 2 μM peptidomimetic, pooled human plasma, 37° C. On the procedure: as §1
Data set [7] is described as follows: Stability in simulated gastric fluid. The format is in vitro ADME. Conditions: 2 μM peptidomimetic, simulated gastric fluid pH 1.5, 37° C. On the procedure: as §1
Data set [8] can be described thus: Stability in simulated intestinal fluid. The format is in vitro ADME. The settings on record: 2 μM peptidomimetic, simulated intestinal fluid pH 7.5, 37° C. Here is the method: as §1
A short description of data set [9]: Stability in liver microsomes. The format is in vitro ADME. The settings on record: 2 μM peptidomimetic, human liver microsomes, 37° C. Here is the method:
as §1
On the technique in general: Liver microsomes are vesicles of endoplasmic reticulum, rich in cytochrome P450 enzymes.

Each structure is given as a SMILES string. Starred links: 1 amine or outer side, 2 acyl side, 3 side chain; linkers in the order of their positions; H or OH if unused. Non-standard residues stand in square brackets, D forms with d. Residues, ends and D or L forms follow the SMILES beside them. ξ: configuration not given here. *: point of attachment. ξBip(2'-Et-4'-OMe) = CCc1cc(OC)ccc1-c1ccc(CC(N)C(=O)O)cc1; X12 = COc1ccc(CCCC(N[*:1])C(=O)[*:2])c(Cl)c1; ξαMePhe(2-F) = CC(N)(Cc1ccccc1F)C(=O)O; X2 = O=C(C(CCCc1ccccc1Cl)N[*:1])[*:2]; ξhhPhe = NC(CCCc1ccccc1)C(=O)O; Aib = CC(C)(N)C(=O)O; Moc = COC(=O)*

DPP IV, sequence (P27487 whole entry, species assumed): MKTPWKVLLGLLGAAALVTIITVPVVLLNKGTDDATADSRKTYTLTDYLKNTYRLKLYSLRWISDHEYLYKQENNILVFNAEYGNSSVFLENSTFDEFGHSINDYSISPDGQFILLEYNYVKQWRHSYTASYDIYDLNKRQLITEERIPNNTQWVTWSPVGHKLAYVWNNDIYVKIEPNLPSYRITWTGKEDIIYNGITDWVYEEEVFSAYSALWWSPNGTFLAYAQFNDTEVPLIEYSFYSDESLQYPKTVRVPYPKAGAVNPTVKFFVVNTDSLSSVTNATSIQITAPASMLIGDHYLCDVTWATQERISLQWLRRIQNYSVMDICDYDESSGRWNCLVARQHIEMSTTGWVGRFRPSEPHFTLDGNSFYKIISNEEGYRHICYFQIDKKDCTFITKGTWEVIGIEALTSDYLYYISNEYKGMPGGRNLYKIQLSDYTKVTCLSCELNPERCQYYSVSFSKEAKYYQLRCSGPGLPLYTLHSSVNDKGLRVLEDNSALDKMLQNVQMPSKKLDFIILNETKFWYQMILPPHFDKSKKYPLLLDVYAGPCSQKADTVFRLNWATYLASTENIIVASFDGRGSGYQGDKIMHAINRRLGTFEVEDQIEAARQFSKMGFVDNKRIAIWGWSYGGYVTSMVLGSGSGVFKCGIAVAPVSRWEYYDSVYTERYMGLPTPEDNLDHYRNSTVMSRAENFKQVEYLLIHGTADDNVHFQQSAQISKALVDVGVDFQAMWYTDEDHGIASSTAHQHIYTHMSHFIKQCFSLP

As to `CCc1cc(OC)ccc1-c1ccc(CC(CNC(CCCc2ccccc2F)C(N)=O)NC(=O)[C@H](CC(=O)O)NC(=O)[C@H](CO)NC(=O)[C@@H](NC(=O)C(C)(Cc2ccccc2F)NC(=O)[C@@H](NC(=O)CNC(=O)C(CCC#N)NC(=O)C(C)(C)NC(=O)[C@@H](N)Cc2c[nH]cn2)[C@H](C)O)[C@H](C)O)cc1` (single isomer, unassigned) [Seq. ID. 192], the blood glucose levels in data set [1] (10 nM/kg i.p., 0 min) turned out to be 180 ± 2.5; in data set [1] (10 nM/kg i.p., 30 min), 110 ± 2.6; in data set [1] (10 nM/kg i.p., 60 min), 111 ± 3.2; in data set [1] (10 nM/kg i.p., 120 min), 112 ± 2.3.

In the case of `CCc1cc(OC)ccc1-c1ccc(CC(CNC(CCCc2ccccc2F)C(N)=O)NC[C@H](CC(=O)O)NC(=O)[C@H](CO)NC(=O)[C@@H](NC(=O)C(C)(Cc2ccccc2F)NC(=O)[C@@H](NC(=O)CNC(=O)[C@H](CCC(N)=O)NC(=O)C(C)(C)NC(=O)[C@H](Cc2c[nH]cn2)NC(C)=O)[C@@H](C)O)[C@@H](C)O)cc1` (single isomer, unassigned) [Seq. ID. 195], the blood glucose levels in [1] (10 nM/kg i.p., 0 min) was found to be 182 ± 2.3; in data set [1] (10 nM/kg i.p., 30 min), 110 ± 2.3; in data set [1] (10 nM/kg i.p., 60 min) it was 112 ± 3.0; in data set [1] (10 nM/kg i.p., 120 min) it was 112 ± 1.9.

On to `CCc1cc(OC)ccc1-c1ccc(CC(NC(=O)[C@H](CC(=O)O)NC(=O)[C@H](CO)NC(=O)[C@@H](NC(=O)C(C)(Cc2ccccc2F)NC(=O)[C@@H](NC(=O)CNC(=O)[C@H](CCC(N)=O)NC(=O)C(C)(C)NC(=O)[C@H](Cc2c[nH]cn2)NC(=O)OC)[C@@H](C)O)[C@@H](C)O)C(=O)NC(CCCc2ccccc2)C(N)=O)cc1` (stereo partly shown) [Seq. ID. 94] (Moc-H[Aib]QGT[ξαMePhe(2-F)]TSD[ξBip(2'-Et-4'-OMe)][ξhhPhe]-NH2), for which the blood glucose levels amounted to 182 ± 4.1 in data set [1] (10 nM/kg i.p., 0 min); 112 ± 3.1 in [1] (10 nM/kg i.p., 30 min); 113 ± 2.6 in [1] (10 nM/kg i.p., 60 min); 111 ± 1.8 in [1] (10 nM/kg i.p., 120 min).

In the case of `CCc1cc(OC)ccc1-c1ccc(CC(CNC(CCCc2ccccc2)C(N)=O)NC[C@H](CC(=O)O)NC(=O)[C@H](CO)NC(=O)[C@@H](NC(=O)C(C)(Cc2ccccc2F)NC(=O)[C@@H](NC(=O)CNC(=O)[C@H](CCC(N)=O)NC(=O)C(C)(C)NC(=O)[C@H](Cc2c[nH]cn2)NC(=O)OC)[C@H](C)O)[C@H](C)O)cc1` (single isomer, unassigned) [Seq. ID. 198], the blood glucose levels in data set [1] (50 nM/kg i.p., 0 min) amounted to 182 ± 4.1; in data set [1] (50 nM/kg i.p., 30 min) it was 112 ± 3.1; in data set [1] (50 nM/kg i.p., 60 min), 113 ± 2.6; in data set [1] (50 nM/kg i.p., 120 min), 111 ± 1.8.

In the case of `CCc1cc(OC)ccc1-c1ccc(CC(CNC(CCCc2ccccc2F)C(N)=O)NC[C@H](CC(=O)O)NC(=O)[C@H](CO)NC(=O)[C@@H](NC(=O)C(C)(Cc2ccccc2F)NC(=O)[C@@H](NC(=O)CNC(=O)[C@H](CCC(N)=O)NC(=O)C(C)(C)NC(=O)[C@H](Cc2c[nH]cn2)NC(=O)OC)[C@@H](C)O)[C@@H](C)O)cc1` (single isomer, unassigned) [Seq. ID. 196], the blood glucose levels in data set [1] (50 nM/kg i.p., 0 min) amounted to 181 ± 2.5; in data set [1] (50 nM/kg i.p., 30 min) it was 111 ± 3.4; in data set [1] (50 nM/kg i.p., 60 min), 113 ± 3.1; in data set [1] (50 nM/kg i.p., 120 min), 110 ± 1.8.

With `CCc1cc(OC)ccc1-c1ccc(CC(C(=O)N(C)C(CCCc2ccccc2F)C(N)=O)N(C)C(=O)[C@H](CC(=O)O)N(C)C(=O)[C@H](CO)NC(=O)[C@@H](NC(=O)C(C)(Cc2ccccc2F)NC(=O)[C@@H](NC(=O)CNC(=O)C(CCC#N)NC(=O)C(C)(C)NC(=O)[C@@H](N)Cc2c[nH]cn2)[C@H](C)O)[C@H](C)O)cc1` (single isomer, unassigned) [Seq. ID. 156], the blood glucose levels in data set [1] (30 nM/kg i.p., 0 min) worked out at 180 ± 3.2; in data set [1] (30 nM/kg i.p., 30 min) it was 119 ± 3.2; in [1] (30 nM/kg i.p., 60 min), 117 ± 3.1; in [1] (30 nM/kg i.p., 120 min) it was 118 ± 1.8.

Take `CCc1cc(OC)ccc1-c1ccc(CC(NC(=O)[C@H](CC(=O)O)NC(=O)[C@H](CO)NC(=O)[C@@H](NC(=O)C(C)(Cc2ccccc2F)NC(=O)[C@@H](NC(=O)CNC(=O)[C@H](CCC(N)=O)NC(=O)C(C)(C)NC(=O)[C@@H](N)Cc2c[nH]cn2)[C@@H](C)O)[C@@H](C)O)C(=O)NC(CCCc2ccc(OC)cc2Cl)C(N)=O)cc1` (stereo partly shown) [Seq. ID. 92] (H-H[Aib]QGT[ξαMePhe(2-F)]TSD[ξBip(2'-Et-4'-OMe)][X12]-NH2): the blood glucose levels worked out at 180 ± 4.2 in data set [1] (10 nM/kg i.p., 0 min); 113 ± 3.2 in data set [1] (10 nM/kg i.p., 30 min); 112 ± 2.4 in [1] (10 nM/kg i.p., 60 min); 110 ± 1.9 in data set [1] (10 nM/kg i.p., 120 min).

`CCc1cc(OC)ccc1-c1ccc(CC(NC(=O)[C@H](CC(=O)O)NC(=O)[C@H](CO)NC(=O)[C@@H](NC(=O)C(C)(Cc2ccccc2F)NC(=O)[C@@H](NC(=O)CNC(=O)[C@H](CCC(N)=O)NC(=O)C(C)(C)NC(=O)[C@@H](N)Cc2c[nH]cn2)[C@@H](C)O)[C@@H](C)O)C(=O)NC(CCCc2ccccc2Cl)C(N)=O)cc1` (stereo partly shown) [Seq. ID. 90] (H-H[Aib]QGT[ξαMePhe(2-F)]TSD[ξBip(2'-Et-4'-OMe)][X2]-NH2): the blood glucose levels in data set [1] (10 nM/kg i.p., 0 min) was 181 ± 2.5; in data set [1] (10 nM/kg i.p., 30 min), 111 ± 3.4; in data set [1] (10 nM/kg i.p., 60 min), 113 ± 3.1; in data set [1] (10 nM/kg i.p., 120 min), 110 ± 1.8.

With `CCc1cc(OC)ccc1-c1ccc(CC(NC(=O)[C@H](CC(=O)O)NC(=O)[C@H](CO)NC(=O)[C@@H](NC(=O)C(C)(Cc2ccccc2F)NC(=O)[C@@H](NC(=O)CNC(=O)C(CCC#N)NC(=O)C(C)(C)NC(=O)[C@@H](N)Cc2c[nH]cn2)[C@H](C)O)[C@H](C)O)C(=O)NC(CCCc2ccccc2F)C(N)=O)cc1` (single isomer, unassigned) [compound 116], the Insulin secretion in data set [2] (0.1 nM test compd.) is 16.4 ± 0.12 pg/µg/h; in [2] (1 nM test compd.), 22.7 ± 0.17 pg/µg/h; in data set [2] (10 nM test compd.) it was 36.6 ± 0.05 pg/µg/h. The “Human GLP-1 R activity (cAMP release), % activity with respect to control” value amounted to 55 ± 0.16% in [3] (1 nM test compound); 88 ± 0.13% in [3] (10 nM test compound); 92 ± 0.11% in data set [3] (100 nM test compound); 99 ± 0.07% in data set [3] (1 μM test compound); 99 ± 0.09% in data set [3] (10 μM test compound). The “Human Glucagon receptor antagonistic activity shown as inhibition of cAMP production of Glucagon peptide” value is 2 ± 0.03 pmol/ml/μg prt in [4] (1 nM test compound); 0 pmol/ml/μg prt in data set [4] (10 nM test compound); 0 pmol/ml/μg prt in data set [4] (100 nM test compound); 0 pmol/ml/μg prt in [4] (1 μM test compound); 0 pmol/ml/μg prt in data set [4] (10 μM test compound). Also, in data set [5] (2 μM peptidomimetic, 24 h), the “% degradation of peptidomimetics in 24 h when incubated with DPP-IV enzyme” value came out at 00%. The half-life at 2 μM in [5] (DPP IV enzyme, pH 7.8, 2 μM peptidomimetic, read-out: half-life (t1/2) when incubated with DPP-IV enzyme) is above 1440 min; in data set [6] (pH 7.8, read-out: half-life (t1/2) when incubated with human plasma), above 1440 min; in data set [7] (read-out: half-life (t1/2) when incubated with simulated gastric fluid), 240 min; in data set [8] (read-out: half-life (t1/2) when incubated with simulated intestinal fluid) it was above 1440 min; in data set [9] (pH 7.8, read-out: half-life (t1/2) when incubated with liver microsomes), 120 min. In addition, the “% degradation of peptidomimetics in 24 h when incubated with human plasma” value in data set [6] (24 h) was 00%. Moreover, the “% degradation of peptidomimetics in 24 h when incubated with simulated gastric fluid” value in data set [7] (24 h) is on record as 43%. Also, the “% degradation of peptidomimetics in 24 h when incubated with simulated intestinal fluid” value in data set [8] (24 h) was 00%. Also, the “% degradation of peptidomimetics in 24 h when incubated with liver microsomes” value in data set [9] (24 h) is given as 84%.
